What all share (assay type): cell-based
One assay relates to Cercospora beticola. In words: in vitro-Test with Cercospora beticola (microtiter growth inhibition). Particulars: alone. The procedure:
(§1) The degree of efficacy expressed in % is denoted: 0% means an efficacy, which corresponds to that of the control, while an efficacy of 100% means that no disease is observed.
(§2) If the actual fungicidal activity exceeds the calculated value, then the activity of the combination is super-additive, i.e. a synergistic effect exists. In this case, the efficacy, which was actually observed, must be greater than the value for the expected efficacy (E), that was calculated from the abovementioned formula.
(§3) Example: In Vitro-Test with Fungal Microorganisms
(§4) Wells of 96-well microtiter plates are filled with 10 μl of a preparation of test compound or compound combination in methanol+emulsifier alkylaryl-polyglycol-ether. Thereafter, the solvent is evaporated in a hood. At the next step, 100 μl of liquid potato dextrose medium is given into each well, that has been amended with an appropriate concentration of spores or mycelium suspension of the test fungus.
(§5) With the aid of a photometer, the extinction in all wells is measured at the wavelength of 620 nm.
(§6) The microtiter plates are incubated at 20° C. and 85% relative humidity. The inhibition of growth is determined again photometrically 3-5 days after the application. Efficacy is calculated in relation to the untreated control, 0% efficacy means fungal growth as high as in untreated control while 100% efficacy means no fungal growth is measured.

A further assay relates to Cordana musae. In words: in vitro-Test with Cordana musae (microtiter growth inhibition). The following applies: single substance. As to the method: as §1, §2, §3, §4, §5, §6
A further assay relates to Diaporthe citri. In words: in vitro-Test with Diaporthe citri (microtiter growth inhibition). The procedure:
as §2, §3, §4, §5, §6

For another assay, the system named is Fusarium culmorum. In words: in vitro-Test with Fusarium culmorum (microtiter growth inhibition). Particulars: Fusarium culmorum, read-out: Efficacy. The procedure:
as §1, §2, §3, §4, §5, §6

The test system of another assay is Alternaria alternate. In words: in vitro-Test with Alternaria alternate (microtiter growth inhibition). The procedure: as §1, §2, §3, §4, §5, §6
Assay [1] deals with Ustilago segetum var. avenae. In words: in vitro-Test with Ustilago segetum var. avenae (microtiter growth inhibition). The following applies: single compound. As to the method:
as §1, §2, §3, §4, §5, §6

In another assay the test system is Botrytis cinerea. In words: in vitro-Test with Botrytis cinerea (microtiter growth inhibition). The following applies: applied alone. The procedure: as §1, §2, §3, §4, §5, §6
A further assay has as its system Parastagonospora nodorum. In words: in vitro-Test with Parastagonospora nodorum (microtiter growth inhibition). The procedure: as §1, §2, §3, §4, §5, §6
Where [2] appears, read: Cercospora beticola, read-out: Efficacy %.
Where [3] appears, read: Diaporthe citri, applied alone, read-out: Efficacy.
[4] abbreviates: Neocordana musae, 0.8 ppm, read-out: Efficacy.
Setting [5] is: Neocordana musae, 20 ppm, read-out: Efficacy.
Setting [6] is: Alternaria, 20 ppm, alone, read-out: Efficacy %.
[7] abbreviates: Alternaria, applied alone, read-out: Efficacy.
[8] abbreviates: Alternaria, applied alone, 20 ppm, read-out: Efficacy.
[9] abbreviates: Neocordana musae, read-out: Efficacy.
Setting [10] is: Alternaria, alone, read-out: Efficacy %.
Setting [11] is: Diaporthe citri, read-out: Efficacy.
[12] abbreviates: Alternaria, 4 ppm, alone, read-out: Efficacy %.
The mark [13] stands for this setting: Diaporthe citri, applied alone, 4 ppm, read-out: Efficacy.

This is an account of results in patent US20230165252A1, “ACTIVE COMPOUND COMBINATIONS” (Bayer Aktiengesellschaft, priority 2020, published 2023).

Where “and” joins values, the source holds several entries; their conditions need not be identical. Equal entries are not always repeated. Where two headings read alike, the source gives them in different places.

As to `Fc1ccc(Oc2ccnc3cc(Cl)cc(Cl)c23)cc1` [Compound 13.005, quinoxyfen], in the assay with Cercospora beticola (setting [2]), the inhibition of growth at 0.08 ppm is 0%. For the same compound, the inhibition of growth at 0.4 ppm with Cercospora beticola (Cercospora beticola, 0.4 ppm, read-out: Efficacy %) turned out to be 2%; with Diaporthe citri (setting [3]) it was 0%. The inhibition of growth at 10 ppm is 20% in the assay with Cercospora beticola (setting [2]); 15% in the assay with Cordana musae (Neocordana musae, 10 ppm, read-out: Efficacy); 54% in the assay with Diaporthe citri (setting [3]). Also, the inhibition of growth at 2 ppm with Cordana musae (Neocordana musae, 2 ppm, read-out: Efficacy) was 1%.

As for `COc1cc(C)c(C(=O)c2c(OC)ccc(Br)c2C)c(OC)c1OC` [Compound 15.016, metrafenone], in the assay on Cordana musae (setting [4]), the inhibition of growth at 0.8 ppm is 0%. The inhibition of growth at 20 ppm with Cordana musae (setting [5]) turned out to be 22%. In addition, in the assay on Fusarium culmorum, the inhibition of growth at 0.8 ppm amounted to 0%, the inhibition of growth at 4 ppm worked out at 0% and the inhibition of growth at 20 ppm came to 0%.

On to `O=C1C2CC=CCC2C(=O)N1SC(Cl)(Cl)Cl` (centres unmarked) [captan], for which the figures for the inhibition of growth at 20 ppm in the assay on Alternaria alternate (setting [6]), in the assay on Alternaria alternate (setting [8]) and in the assay on Fusarium culmorum were 83%, 100% and 5%, respectively. Besides, the figures for the inhibition of growth at 0.8 ppm in the assay on Alternaria alternate (setting [7]) and in the assay with Fusarium culmorum were 10% and 2%, respectively. For the same compound, the Efficacy in the assay on Alternaria alternate (applied alone, 4 ppm) was 100%; in the assay with Cordana musae (0.8 ppm), 0%. The inhibition of growth at 4 ppm worked out at 73% in the assay on Cercospora beticola (Cercospora beticola, 4 ppm, read-out: Efficacy %) and 2% in the assay on Cordana musae (setting [9]).

As for `O=C1c2ccccc2C(=O)N1SC(Cl)(Cl)Cl` [folpet], the inhibition of growth at 0.4 ppm with Alternaria alternate (setting [10]) came to 0%; in the assay on Alternaria alternate (setting [7]), 1%; with Diaporthe citri (setting [11]), 33%; with Diaporthe citri (setting [3]), 53%; in the assay with Fusarium culmorum (0.4 ppm), 0%. The inhibition of growth at 0.08 ppm in the assay with Alternaria alternate (Alternaria, applied alone, 0.08 ppm, read-out: Efficacy) is 5%; with Cercospora beticola (setting [2]), 7%; in the assay on Diaporthe citri (setting [11]), 20%; with Diaporthe citri (setting [3]), 0%; in assay [1] (0.08 ppm, read-out: Efficacy %) it was 12%. Moreover, the inhibition of growth at 2 ppm in the assay on Alternaria alternate (Alternaria, applied alone, 2 ppm, read-out: Efficacy) was 100%; in the assay on Cercospora beticola (Cercospora beticola, 2 ppm, read-out: Efficacy %), 100%; in the assay on Diaporthe citri (Diaporthe citri, 2 ppm, read-out: Efficacy), 98%; in the assay on Fusarium culmorum (2 ppm), 62%. Further, the inhibition of growth at 10 ppm with Alternaria alternate (Alternaria, applied alone, 10 ppm, read-out: Efficacy) was 100%; with Cercospora beticola (setting [2]), 100%; with Diaporthe citri (setting [3]) it was 99%; in the assay with Fusarium culmorum (10 ppm) it was 100%.

Regarding `N#Cc1ccccc1NC(=O)c1snc(Cl)c1Cl` [isotianil], the Efficacy % stood at 0% in the assay on Alternaria alternate (4 ppm, alone); 7% in the assay with Alternaria alternate (20 ppm, alone); 0% in the assay with Alternaria alternate (100 ppm, alone); 17% in the assay with Cercospora beticola (0.8 ppm); 17% with Cercospora beticola (4 ppm); 12% in the assay with Cercospora beticola (20 ppm). In addition, the Efficacy % in the assay on Cercospora beticola (100 ppm) was 29%. Further, the Efficacy with Cordana musae (20 ppm) amounted to 3%; in the assay with Cordana musae (100 ppm) it was 16%; with Diaporthe citri (0.8 ppm) it was 0%; in the assay on Diaporthe citri (4 ppm), 24%; in the assay with Diaporthe citri (20 ppm), 0%; in the assay with Diaporthe citri (100 ppm) it was 0%. Further, the Efficacy was 12% in the assay with Diaporthe citri (applied alone, 0.8 ppm); 19% and 23% in the assay with Diaporthe citri (applied alone, 4 ppm); 5% and 14% in the assay with Diaporthe citri (applied alone, 20 ppm); 5% in the assay on Diaporthe citri (applied alone, 100 ppm).

Take `CC(O)(Cn1cncn1)c1ccc(Oc2ccc(Cl)cc2)cc1C(F)(F)F` (centres unmarked) [mefentrifluconazole]: the Efficacy % in the assay on Alternaria alternate (0.008 ppm, alone) was determined as 0%; in the assay on Alternaria alternate (1.0 ppm, alone), 100%; in the assay on Cercospora beticola (0.04 ppm), 100%; with Cercospora beticola (0.2 ppm), 100%; in assay [1] (0.008 ppm) it was 5%; in assay [1] (0.2 ppm), 67%. Moreover, the Efficacy % in assay [1] (1.0 ppm) amounted to 100%. Also, the Efficacy was determined as 36% with Botrytis cinerea (0.04 ppm); 63% with Botrytis cinerea (0.2 ppm); 100% in the assay on Botrytis cinerea (1.0 ppm); 0% in the assay on Cordana musae (0.008 ppm); 100% in the assay on Cordana musae (1.0 ppm); 85% with Diaporthe citri (applied alone, 0.04 ppm). Moreover, the Efficacy in the assay on Diaporthe citri (applied alone, 0.2 ppm) came to 100%; in the assay with Diaporthe citri (applied alone, 1.0 ppm), 100%; in the assay with Parastagonospora nodorum (0.008 ppm) it was 85%; in the assay with Parastagonospora nodorum (0.04 ppm), 97%; in the assay on Parastagonospora nodorum (0.2 ppm), 99%; in the assay on Parastagonospora nodorum (1.0 ppm), 100%.

As to `OC(Cc1ccccc1Cl)(Cn1nc[nH]c1=S)C1(Cl)CC1` (centres unmarked) [prothioconazole], the inhibition of growth at 0.008 ppm came out at 0% with Alternaria alternate (Alternaria, 0.008 ppm, alone, read-out: Efficacy %); 0% in the assay on Cercospora beticola (Cercospora beticola, 0.008 ppm, read-out: Efficacy %); 0% with Cordana musae (Neocordana musae, 0.008 ppm, read-out: Efficacy). The inhibition of growth at 0.2 ppm in the assay on Alternaria alternate (setting [10]) amounted to 100%; in the assay on Alternaria alternate (setting [7]) it was 99%; with Cordana musae (Neocordana musae, 0.2 ppm, read-out: Efficacy) it was 100%. Also, the inhibition of growth at 1 ppm was 100% with Alternaria alternate (Alternaria, 1.0 ppm, alone, read-out: Efficacy %) and 100% with Alternaria alternate (Alternaria, applied alone, 1.0 ppm, read-out: Efficacy). For the same compound, the inhibition of growth at 0.04 ppm was 32% with Alternaria alternate (Alternaria, applied alone, 0.04 ppm, read-out: Efficacy); 88% in the assay with Cercospora beticola (Cercospora beticola, 0.04 ppm, read-out: Efficacy %); 64% in the assay with Cordana musae (Neocordana musae, 0.04 ppm, read-out: Efficacy).

`Cc1cc(C)nc(Nc2ccccc2)n1` [pyrimethanil]: the inhibition of growth at 0.8 ppm is 88% with Alternaria alternate (setting [10]); 100% in the assay with Alternaria alternate (setting [7]); 0% in the assay with Cercospora beticola (Cercospora beticola, 0.8 ppm, read-out: Efficacy %); 9% in the assay on Cordana musae (setting [4]). The inhibition of growth at 4 ppm in the assay on Alternaria alternate (setting [12]) was determined as 99%; in the assay on Alternaria alternate (Alternaria, applied alone, 4 ppm, read-out: Efficacy), 100%; in the assay on Diaporthe citri (setting [13]), 94%. Also, the inhibition of growth at 20 ppm with Alternaria alternate (setting [6]) came to 100%; in the assay on Alternaria alternate (setting [8]), 100%; with Cercospora beticola (Cercospora beticola, 20 ppm, read-out: Efficacy %) it was 100%; in the assay on Cordana musae (setting [5]), 15%. Moreover, the Efficacy in the assay with Botrytis cinerea (0.8 ppm) turned out to be 96%; in the assay on Botrytis cinerea (4 ppm) it was 99%; with Parastagonospora nodorum (0.8 ppm), 100%; in the assay on Parastagonospora nodorum (4 ppm), 100%.

Take `CCCN(CC)CC1COC2(CCC(C(C)(C)C)CC2)O1` (centres unmarked) [spiroxamine]: the inhibition of growth at 0.8 ppm in the assay on Alternaria alternate (setting [10]) is 1%; in the assay with Diaporthe citri (Diaporthe citri, applied alone, 0.8 ppm, read-out: Efficacy), 0%; in the assay with Fusarium culmorum it was 0%; in assay [1] (0.8 ppm, read-out: Efficacy %), 0%. The inhibition of growth at 4 ppm with Alternaria alternate (setting [12]) worked out at 1%; in the assay on Cordana musae (setting [9]) it was 0%; in the assay on Diaporthe citri (setting [13]), 0%; with Fusarium culmorum, 0%; in assay [1] (4 ppm, read-out: Efficacy %), 0%. In addition, the Efficacy in the assay with Botrytis cinerea (0.8 ppm) was found to be 5%; with Botrytis cinerea (4 ppm) it was 4%. Besides, the inhibition of growth at 20 ppm is 4% with Cordana musae (setting [5]); 6% in the assay with Diaporthe citri (Diaporthe citri, applied alone, 20 ppm, read-out: Efficacy); 2% in the assay on Fusarium culmorum; 87% in assay [1] (20 ppm, read-out: Efficacy %).
